What was measured:
IDH1 R132C = IDH1 R132C (Homo sapiens, UniProt O75874, R132C); assay: IDH1 R132C enzymatic assay (NADPH depletion coupled to diaphorase/resazurin); assay type: biochemical; details: enzymatic inhibition, IDH1 R132C
In short: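 NADPH depletion, read via diaphorase/resazurin coupling, after adding substrate at 0.6 mM α-KG and 0.012 mM NADPH. Beforehand, 0.00032 mg/mL enzyme sat with compound 30 min at room temperature in pH 6.5 potassium phosphate buffer with MgCl2, glycerol and BSA.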

IDH1 R132H = IDH1 R132H (Homo sapiens, UniProt O75874, R132H); assay: IDH1 R132H enzymatic assay (NADPH depletion coupled to diaphorase/resazurin); assay type: biochemical; details: enzymatic inhibition, IDH1 R132H
IDH1 R132H, sequence (O75874 whole entry R132H): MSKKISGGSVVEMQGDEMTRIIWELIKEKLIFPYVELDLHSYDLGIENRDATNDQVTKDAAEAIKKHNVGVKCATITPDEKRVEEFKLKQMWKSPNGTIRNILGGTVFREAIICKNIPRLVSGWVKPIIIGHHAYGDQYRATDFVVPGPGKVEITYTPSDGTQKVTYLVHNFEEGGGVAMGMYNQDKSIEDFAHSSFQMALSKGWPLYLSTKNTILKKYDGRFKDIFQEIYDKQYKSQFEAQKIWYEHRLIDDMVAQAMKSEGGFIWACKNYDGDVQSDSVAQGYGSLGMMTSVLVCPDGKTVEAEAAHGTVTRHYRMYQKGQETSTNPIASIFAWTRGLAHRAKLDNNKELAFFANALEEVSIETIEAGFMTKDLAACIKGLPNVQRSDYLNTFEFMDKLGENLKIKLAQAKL

IDH1 R132C, sequence (O75874 whole entry R132C): as the sequence (O75874 whole entry R132H) above, with H132C counted along it

Row | Compound | IC50 (IDH1 R132C) [nM] | IC50 (IDH1 R132H) [nM]
1 | C=Cc1sc(-c2cc(C(=O)N3CCNCC3)c(CC(C)C)n(-c3c(CC)cccc3CC)c2=O)nc1-c1ccc(Cl)cc1 [Compound 413] | < 300 | 300 to 1000
2 | COc1cccc(OC)c1-n1c2c(cc(-c3nc(-c4ccc(Cl)cc4)cs3)c1=O)C(=O)CCC2 [Compound 414] | 1000 to 5000 | 1000 to 5000
3 | CCc1cccc(CC)c1-n1c(C=C(C)C)c(C(=O)N2CCNCC2)cc(-c2ccn(-c3ccc(OC4CC4)cc3)n2)c1=O [Compound 415] | < 300 | < 300
4 | CCc1ncc(OC)cc1-n1c(C=C(C)C)c(C(=O)N2CCNCC2)cc(-c2nc(-c3ccc(Cl)cc3)cs2)c1=O [Compound 416] | < 300 | < 300
5 | CCc1cccc(CC)c1-n1c(CC(C)C)c(C(=O)N2CCNCC2)cc(-c2ccnc(-c3ccc(Cl)cc3)n2)c1=O [Compound 417] | 300 to 1000 | 300 to 1000
6 | CCc1cccc(CC)c1-n1c(C=C(C)C)c(C(=O)N2CCNCC2)cc(-c2nc(-c3ccc(C(F)(F)F)nc3)cs2)c1=O [Compound 418] | < 300 | < 300
7 | CCc1cccc(CC)c1-n1c(CC(C)C)c(C(=O)N2CCNCC2)cc(-c2nc(-c3ccc(C(=O)N(C)C)cc3)c(C)s2)c1=O [Compound 419] | 1000 to 5000 | 1000 to 5000
8 | CCOc1ccc(C)cc1-n1c(C=C(C)C)c(C(=O)N2CCNCC2)cc(-c2nc(-c3ccc(C(F)(F)F)nc3)cs2)c1=O [Compound 420] | < 300 | < 300
9 | COc1ccc(C(N)=O)cc1-n1c2c(cc(-c3nc(-c4ccc(Cl)cc4)cs3)c1=O)C(=O)CC(C)(C)C2 [Compound 423] | 1000 to 5000 | 1000 to 5000
10 | CCc1ccc(F)cc1-n1c(C=C(C)C)c(C(=O)N2CCNCC2)cc(-c2nc(-c3ccc(C(F)(F)F)nc3)cs2)c1=O [Compound 424] | 300 to 1000 | < 300
11 | CCc1cccc(CC)c1-n1c(C=C(C)C)c(C(=O)N2CCN[C@@H](C)C2)cc(-c2nc(-c3ccc(C(F)(F)F)cc3)cs2)c1=O [Compound 425] | < 300 | < 300
12 | CCc1cccc(CC)c1-n1c(C=C(C)C)c(C(=O)N2CCNC(C(N)=O)C2)cc(-c2nc(-c3ccc(Cl)cc3)cs2)c1=O (stereo not drawn) [Compound 426] | < 300 | < 300
13 | CCc1ncc(OC)cc1-n1c(C=C(C)C)c(C(=O)N2CCNCC2)cc(-c2nc(-c3ccc(C(F)F)cc3)cs2)c1=O [Compound 427] | 300 to 1000 | < 300
14 | Cc1cccc(CO)c1-n1c2c(cc(-c3nc(-c4ccc(Cl)cc4)cs3)c1=O)C(=O)CCC2 [Compound 428] | 1000 to 5000 | 1000 to 5000
15 | CC1(C)CC(=O)c2cc(-c3nc(-c4ccc(Cl)cc4)cs3)c(=O)n(-c3cscc3C(N)=O)c2C1 [Compound 429] | 5000 to 20000 | 5000 to 20000
16 | CCc1cccc(CC)c1-n1c(CC(C)C)c(C(=O)N2CCNCC2)cc(-c2nc(-c3ccc(Cl)cc3)c(C(F)(F)F)s2)c1=O [Compound 430] | 300 to 1000 | 300 to 1000
17 | CCc1cccc(CC)c1-n1c(C=C(C)C)c(C(=O)N2CCNC3(CC3)C2)cc(-c2nc(-c3ccc(Cl)cc3)cs2)c1=O [Compound 431] | < 300 | < 300
18 | CCc1cccc(C)c1-n1c(C)c(C(=O)N2CCNCC2)cc(-c2nc(-c3ccc(Cl)cc3)cs2)c1=O [Compound 432] | 1000 to 5000 | 300 to 1000
19 | CCc1cccc(CC)c1-n1c(CC2CCC2)c(C(=O)N2CCNCC2)cc(-c2nc(-c3ccc(Cl)cc3)cs2)c1=O [Compound 433] | < 300 | < 300
20 | CCc1cccc(CC)c1-n1c(C2CCC2)c(C(=O)N2CCNCC2)cc(-c2nc(-c3ccc(Cl)cc3)cs2)c1=O [Compound 434] | < 300 | 300 to 1000
21 | CCc1cccc(CC)c1-n1c(C=C(C)C)c(C(=O)N2CCNCC2)cc(-c2nn(-c3ccc(Cl)cc3)cc2C(F)(F)F)c1=O [Compound 435] | 5000 to 20000 | 1000 to 5000
22 | COc1ccncc1-n1c2c(cc(-c3nc(-c4ccc(Cl)cc4)cs3)c1=O)C(=O)CC(C)(C)C2 [Compound 436] | 5000 to 20000 | > 20000
23 | CC(C)=Cc1c(C(=O)N2CCNCC2)cc(-c2nc(-c3ccc(Cl)cc3)cs2)c(=O)n1-c1ccccc1C [Compound 437] | 300 to 1000 | < 300
24 | COc1ccc(C)cc1-n1c(C=C(C)C)c(C(=O)N2CCNCC2)cc(-c2nc(-c3ccc(Cl)cc3)cs2)c1=O [Compound 438] | < 300 | < 300
25 | Cc1nonc1-n1c2c(cc(-c3nc(-c4ccc(Cl)cc4)cs3)c1=O)C(=O)CC(C)(C)C2 [Compound 439] | 1000 to 5000 | > 20000
26 | CN1CCN(Cc2ccccc2-n2c3c(cc(-c4nc(-c5ccc(Cl)cc5)cs4)c2=O)C(=O)CCC3)CC1 [Compound 440] | 5000 to 20000 | 5000 to 20000
27 | CC1(C)CC(=O)c2cc(-c3nc(-c4ccc(Cl)cc4)cs3)c(=O)n(-c3ccc(Cl)cc3Cl)c2C1 [Compound 441] | 5000 to 20000 | > 20000

Row | Compound | IC50 (IDH1 R132C) [nM] | IC50 (IDH1 R132H) [nM]
28 | CCc1cccc(CC)c1-n1c(C=C(C)C)c(C(=O)N2CCNCC23COC3)cc(-c2nc(-c3ccc(Cl)cc3)cs2)c1=O [Compound 443] | < 300 | 300 to 1000
29 | CCOc1cccc(OCC)c1-n1c2c(cc(-c3nc(-c4ccc(Cl)cc4)cs3)c1=O)C(=O)CCC2 [Compound 444] | 300 to 1000 | 300 to 1000
30 | CN1CCN(Cc2cccc(-n3c4c(cc(-c5nc(-c6ccc(Cl)cc6)cs5)c3=O)C(=O)CC(C)(C)C4)c2)CC1 [Compound 445] | 5000 to 20000 | 5000 to 20000
31 | CCc1cccc(CC)c1-n1c(C2CCOCC2)c(C(=O)N2CCNCC2)cc(-c2nc(-c3ccc(Cl)cc3)cs2)c1=O [Compound 446] | 300 to 1000 | 1000 to 5000
32 | CCc1cccc(CC)c1-n1c(C=C(C)C)c(C(=O)N2C[C@H]3C[C@@H]2CN3)cc(-c2nc(-c3ccc(Cl)cc3)cs2)c1=O [Compound 447] | < 300 | < 300
33 | CCc1cccc(Cl)c1-n1c(C=C(C)C)c(C(=O)N2CCNCC2)cc(-c2nc(-c3ccc(Cl)cc3)cs2)c1=O [Compound 448] | < 300 | < 300
34 | CC(C)=Cc1c(C(=O)N2CCNCC2)cc(-c2nc(-c3ccc(Cl)cc3)cs2)c(=O)n1-c1ccccc1Cl [Compound 449] | < 300 | < 300
35 | Cc1ccc(-n2c3c(cc(-c4nc(-c5ccc(Cl)cc5)cs4)c2=O)C(=O)CCC3)c(C)c1 [Compound 450] | > 20000 | > 20000
36 | O=C1CCCc2c1cc(-c1nc(-c3ccc(Cl)cc3)cs1)c(=O)n2-c1ccccc1C(F)(F)F [Compound 451] | 1000 to 5000 | 300 to 1000
37 | CCc1cccc(CC)c1-n1c(CC(C)C)c(C(=O)N2CCNCC2)cc(-n2ccc(-c3ccc(Cl)cc3)n2)c1=O [Compound 452] | < 300 | < 300
38 | CCc1cccc(CC)c1-n1c(CC(C)C)c(C(=O)N2CCNCC2)cc(-c2nc(-c3ccc(Cl)cc3)c(C(=O)NC)s2)c1=O [Compound 454] | 1000 to 5000 | 300 to 1000
39 | CCc1cccc(CC)c1-n1c(CC2CCCCO2)c(C(=O)N2CCNCC2)cc(-c2nc(-c3ccc(Cl)cc3)cs2)c1=O (stereo not drawn) [Compound 455] | 300 to 1000 | 1000 to 5000
40 | CCc1cccc(CC)c1-n1c(C(CC)OC)c(C(=O)N2CCNCC2)cc(-c2nc(-c3ccc(Cl)cc3)cs2)c1=O (stereo not drawn) [Compound 456] | 300 to 1000 | 300 to 1000
41 | CCc1cccc(CC)c1-n1c(C2CCCO2)c(C(=O)N2CCNCC2)cc(-c2nc(-c3ccc(Cl)cc3)cs2)c1=O (stereo not drawn) [Compound 457] | < 300 | < 300
42 | CCOc1ccc(-n2ccc(-c3cc(C(=O)N4CCNCC4)c(CC(C)C)n(-c4c(CC)cccc4CC)c3=O)n2)cc1 [Compound 458] | < 300 | < 300
43 | CCc1cccc(CC)c1-n1c(C(C)OC)c(C(=O)N2CCNCC2)cc(-c2nc(-c3ccc(Cl)cc3)cs2)c1=O (stereo not drawn) [Compound 459] | < 300 | < 300
44 | Cc1ccc(CN2CCN(C)CC2)cc1-n1c2c(cc(-c3nc(-c4ccc(Cl)cc4)cs3)c1=O)C(=O)CC(C)(C)C2 [Compound 460] | 5000 to 20000 | 5000 to 20000
45 | COc1cccc(OC)c1-n1c(CC(C)C)c(C(=O)N2CCNCC2)cc(-c2nc(-c3ccc(Cl)cc3)cs2)c1=O [Compound 461] | 300 to 1000 | < 300
46 | Cc1ccccc1Oc1nc(C)c(C(=O)N2CCNCC2)cc1-c1nc(-c2ccc(Cl)cc2)cs1 [Compound 462] | 5000 to 20000 | 5000 to 20000
47 | CCOc1ccc(Cl)cc1-n1c(C=C(C)C)c(C(=O)N2CCNCC2)cc(-c2nc(-c3ccc(Cl)cc3)cs2)c1=O [Compound 463] | < 300 | < 300
48 | CCc1cccc(CC)c1-n1c(CC(C)C)c(C(=O)N2CCNCC2)cc(-c2nc(-c3ccc(Cl)cc3)c(C(=O)N(C)C)s2)c1=O [Compound 464] | 1000 to 5000 | 300 to 1000
49 | CCc1cccc(CC)c1-n1c(CC(C)C)c(C(=O)N2CCNC3(CCC3)C2)cc(-c2nc(-c3ccc(Cl)cc3)cs2)c1=O [Compound 465] | < 300 | < 300
50 | CCc1ncc(OC)cc1-n1c(C=C(C)C)c(C(=O)N2CCNCC2)cc(-c2nc(-c3ccc(C(F)F)cn3)cs2)c1=O [Compound 466] | 5000 to 20000 | 1000 to 5000
51 | COc1cccc(OC)c1-n1c(C=C(C)C)c(C(=O)N2CCNCC2)cc(-c2nc(-c3ccc(Cl)cc3)cs2)c1=O [Compound 467] | < 300 | < 300
52 | Cc1cccc(CN2CCN(C)CC2)c1-n1c2c(cc(-c3nc(-c4ccc(Cl)cc4)cs3)c1=O)C(=O)CCC2 [Compound 468] | 5000 to 20000 | 5000 to 20000
53 | CCOc1ncc(Cl)cc1-n1c(C=C(C)C)c(C(=O)N2CCNCC2)cc(-c2nc(-c3ccc(C(F)F)cn3)cs2)c1=O [Compound 469] | 1000 to 5000 | 300 to 1000
54 | Cc1ccccc1-n1c(C)c(C(=O)N2CCNCC2)cc(-c2nc(-c3ccc(Cl)cc3)cs2)c1=O [Compound 470] | 5000 to 20000 | 1000 to 5000

From patent US10703746B2, “Mutant IDH1 inhibitors useful for treating cancer” (THE UNITED STATES OF AMERICA, AS REPRESENTED BY THE …, priority 2014, dated 2020)
